Data set [1] deals with neuronal redox state (roGFP2). Nature of the data set: roGFP2 redox reporter in primary neurons. The settings on record: 30 min treatment. Format: cell-based. As to the method:
[…]. Rat coronal brain slice explants co-transfected with YFP and Tau-4R (FIG. 16B) or striatal brain slice explants co-transfected with YFP and mHTT (FIG. 16C) were treated with LC-43 or DMSO carrier-only for 3 days. The respective regions of each brain slice were then scored for numbers of healthy (FIG. 16B) pyramidal or (FIG. 16C) medium spiny neurons remaining. Data are normalized to the negative control condition set to 100% and plotted as means±SEM. In FIG. 16D, The confocal images shown are maximal z-stacks of 0.5 μm steps (˜20 images per stack). (Bottom) Reduction of neuronal redox state by LC-43. Left, Primary neurons were co-transfected with mCherry (to positively identify transfected neurons) and the genetically encoded ratiometric redox reporter roGFP2. Four days later, the culture medium was changed into an identical formulation except without conventional antioxidant additives. 24 hours after this medium change, LOC-43 or DMSO carrier-only were added to the neurons and images were taken after 30 minutes or 24 hours of treatment as indicated. Imaging was done using a Leica SP5 inverted confocal microscope through a 63× water-immersion objective. Images of 40 individual neurons for each condition were collected at 405 and 488 nm and analysis of the 405/488 ratio for each image pair was done using CellProfiler (Broad Institute).
As mentioned, we synthesized several fluorine-containing analogs of LOC14 (analogs LC-43 and LC-40). Addition of fluorine was the only modification that was tolerated at the ortho position without a complete loss of activity in cells and in targeting PDI in vitro (Table 9). […] Additionally, we evaluated LC-43 using a genetically encoded redox reporter transfected into neurons. […] In contrast, treatment with the non-selective reducing agent dithiothreitol (DTT) produces an immediate and dramatic reduction in the roGFP2 fluorescence ratio that leads rapidly to cell degeneration and death (FIG. 16D). […]

Data set [2] has as its system PC12 mHTTQ103 cells. The experiment in a line: Rescue of PC12 cells from mHTTQ103-induced cell death. Format: cell-based, rat. The settings on record: for EC50: Rattus norvegicus, PC-12.
Data set [3] deals with T1, human catalytic PDI A1 a domain (PDIa) (Homo sapiens, UniProt P07237).
T1 construct: made in house; host or cells: Escherichia coli BL21-Gold (DE3)
The experiment in a line: Isothermal titration calorimetry (ITC) binding to PDIa. The conditions noted are these: for ITC KD: N/A = not active. Background: ITC needs no label: the signal is the heat of the interaction.

Data set [4] addresses T2, PDIa C56S mutant (PDI C39S) (Homo sapiens, UniProt P07237, C56S).
T2 construct: made in house; host or cells: E. coli
Nature of the data set: MALDI-TOF mass spectrometry with PDIa C56S mutant. In kind it is binding. The text has this: We also explored the feasibility of generating a crystal structure of PDI bound to one of these inhibitors for structure-based analog design. LOC14 is a reversible inhibitor of PDI and therefore may not remain bound to the protein in crystallization trays. To trap the LOC14-PDI complex, we generated a PDI C39S mutant that should not release the compound from PDI. To confirm this mechanism of binding, we performed MALDI-TOF mass-spectrometry experiments with PDI C39S in the presence and absence of LOC14 (FIG. 4). […] PDI C39S treated with LOC14 gave 4 peaks: main mass peak at 15,557 Da (change of +152 which corresponds to the bound benzoisothiazolone moiety to PDI C39S), a peak at 15,735 Da (corresponding to the benzoisothiazolone moiety bound to C39S-gluconoylated protein), a peak at 15,404 (the mass of unbound C39S protein), and a peak at 15,584 Da (the mass of unbound C39S-gluconoylated protein). […] The incomplete binding is most likely due to the presence of reducing agent in the buffer. […]
To confirm that binding of LOC14 to PDI is reversible, we pre-treated a C56S mutant, as before, with LOC14, BIT, or iodoacetamide, an irreversible modifier of cysteines. Once the PDI-inhibitor complexes were formed, we treated the samples with 2.7 mM DTT, a reducing agent, and analyzed the complex by MALDI-TOF.

Data set [5] is described as follows: Solubility (stock solvent).
Data set [6] addresses PDI (Homo sapiens, UniProt P07237). The experiment in a line: Enzymatic assay for inhibition of PDI using insulin as substrate. In kind it is biochemical.
Data set [7] concerns uninduced PC12 cells not expressing mHTTQ103. Nature of the data set: General cell toxicity in PC12 cell culture assay. In kind it is cell-based. On the procedure: Neuroprotection was assessed by each compound's ability to rescue cells from mutant-huntingtin-induced cell death (“Ind Q103” cells; blue). General cell toxicity of each compound was assessed in uninduced cells not expressing mutant-huntingtin protein (“Unind Q103” cells; red). NMP, DMSO, LOC14 in NMP and LOC14 in DMSO were used as controls.
Data from cells induced to express mHTT^Q103 (blue) and cells not expressing mHTT^Q103 (red) are plotted as mean percent of DMSO-treated uninduced cells±SD with n=3.
The follow-up testing of primary screen hits was performed in a similar way. Fresh powder stocks of primary hits were re-ordered from vendors, dissolved in DMSO and tested in a two-fold serial dilution across 10 wells in both tebufenozide-induced and uninduced PC12 mHTT^Q103 cells. Dose-response curves were plotted as mean±SD and fit to either four-parameter sigmoidal (for uninduced cells) or bell-shaped (induced) function using Prism (GraphPad Software).

In data set [8] the target is T3, 15N-labeled PDIa (Homo sapiens, UniProt P07237).
T3 construct: His6 (N, cleaved yes); made in house; host or cells: Escherichia coli BL21-Gold (DE3), M9 minimal medium with 15NH4Cl
Nature of the data set: 1H-15N HSQC NMR of PDIa. In kind it is binding. On the procedure: The ^1H-^15N HSQC spectra were performed on Bruker Avance III 500 Ascend (500 MHz) spectrometers at 300 K. The uniformly ^15N-labeled PDIa was dissolved at 50 μM or 100 μM in 90% H2O/10% D20 (v/v), pH 5.1. The ^1H carrier frequency was positioned at the water resonance. The ^15N carrier frequency was positioned at 115 ppm. The spectral width in the ^1H dimension was 7500 Hz and the width in ω1 (^15N) dimension was 1824.6 Hz. Suppression of water signal was accomplished using the WATERGATE sequence. Heteronuclear decoupling was accomplished using GARP decoupling scheme.

The subject of data set [9] is PC12 mHTTQ103 cells. The experiment in a line: Trypan blue viability assay. In kind it is cell-based, rat. The settings on record: 3 μM, 24 hours. On the procedure: (§1) In FIG. 14B, cells were stained with 5 μM CeIIROX Orange dye to assay cellular ROS production. Representative data from one of three flow cytometry replicates are shown. In FIG. 14C, an aliquot from each sample was used for assessing viability, using Trypan blue dye on ViCell. […] Data are plotted as mean±SD with n=3.
(§2) One goal was to further understand why modulating PDI activity can be neuroprotective in AD and HD models. Previously, we saw that LOC14 alters PDI's redox state from the reduced to the oxidized conformation (Kaplan et al. 2015). In vivo, there are oxidoreductase enzymes, such as ERO1, that regulate PDI's redox states and, as a byproduct of the redox reaction, pass electrons to oxygen as a final electron acceptor, generating H2O2. We hypothesized that LOC14 might function in place of oxidoreductases such as ERO1, oxidizing PDI without generating H2O2 and that this decrease in ROS production is what is causing the neuroprotection in cells and neurons. […] Cells were then stained with the fluorescent ROS-sensitive dye, CeIIROX Orange, and ROS assayed by flow cytometry. Induced mHTT-expressing cells had elevated levels of ROS compared to cells not expressing mHTT (uninduced cells) and these ROS were decreased in cells treated with LOC14 (FIG. 14B). […]

Data set [10] relates to ROS in PC12 mHTTQ103 cells. Nature of the data set: CellROX Orange flow cytometry ROS assay. In kind it is cell-based, rat. The settings on record: 3 μM, 24 hours, mHTT-induced cells. On the procedure:
as §1, §2
(In flow cytometry, cells or beads pass a laser one at a time.)

[11] abbreviates: Tables 5-13, PC12 cells, read-out: EC50.
[12] abbreviates: Tables 5-13, solvent not given (DMSO in Table 1).
Where [13] appears, read: rescue from mHTTQ103 induced cell death.

Converted amounts (≈) assume the structure as drawn. Like-named read-outs stand apart in the source and are kept apart here.

Chain of PDI (P07237 18-508): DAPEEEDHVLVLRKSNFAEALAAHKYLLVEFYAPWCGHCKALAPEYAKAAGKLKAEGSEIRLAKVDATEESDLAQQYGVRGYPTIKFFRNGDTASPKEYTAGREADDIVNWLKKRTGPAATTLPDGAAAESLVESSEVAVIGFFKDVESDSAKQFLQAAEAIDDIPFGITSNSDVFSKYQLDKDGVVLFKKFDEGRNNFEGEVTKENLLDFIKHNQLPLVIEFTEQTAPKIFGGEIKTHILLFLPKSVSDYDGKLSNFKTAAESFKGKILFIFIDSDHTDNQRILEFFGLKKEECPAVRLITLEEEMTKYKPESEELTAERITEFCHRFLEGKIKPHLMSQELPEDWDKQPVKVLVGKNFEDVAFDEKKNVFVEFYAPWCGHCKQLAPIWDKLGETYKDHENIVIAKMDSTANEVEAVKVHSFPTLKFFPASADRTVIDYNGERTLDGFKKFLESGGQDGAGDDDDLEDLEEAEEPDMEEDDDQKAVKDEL
T3 sequence (P07237 18-134): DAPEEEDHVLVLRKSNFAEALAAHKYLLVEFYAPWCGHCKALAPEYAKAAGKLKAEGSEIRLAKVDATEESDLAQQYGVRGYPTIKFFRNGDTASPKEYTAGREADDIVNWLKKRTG
T1 sequence (P07237 18-134): as above
T2 sequence (P07237 18-134 C56S): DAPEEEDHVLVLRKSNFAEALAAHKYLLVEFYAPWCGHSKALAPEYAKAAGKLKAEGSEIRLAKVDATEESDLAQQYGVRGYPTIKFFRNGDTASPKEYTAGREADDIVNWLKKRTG

As for `O[C@H](CS)[C@H](O)CS` (racemic) [DTT, dithiothreitol, reference compound], the “neuronal redox state (roGFP2)” value in data set [1] was “immediate and drastic reduction”.

Consider `O=c1[nH]sc2ccccc12` [BIT, benzoisothiazolone, reference compound], for which the EC50 (in general, the concentration that produces a half-maximal response) in data set [2] (setting [11]) was determined as 0.362 µM. Besides, the “Max Viability (%)” value in data set [2] (Tables 5-13, PC12 cells) worked out at 66%. The Kd – broadly, the equilibrium constant for the complex coming apart – in data set [3] (Tables 5-13, NA = not active, read-out: Kd) turned out to be 0.143 µM. The “reversibility of binding to PDIa C56S after 2.7 mM DTT” value in data set [4] is “bind reversibly to C53”. The “Solubility” value in data set [5] (setting [12]) is recorded as 100 mM (≈ 15.1 mg/mL).

As for `O=c1[nH]sc2c(F)cccc12` [LC-40, 7-fluorobenzo[d]isothiazol-3(2H)-one], the EC50 in [2] (setting [11]) came out at 9.33 µM. The “Max Viability (%)” value in [2] (Tables 5-13, PC12 cells) turned out to be 72%. The “PC12 cells Max % Viability” value in data set [2] (setting [13]) was 72.31%. In addition, in data set [6], the “inhibition of enzymatic (reductase) activity of PDI” value is on record as “able to inhibit the enzymatic activity of PDI”. In [3], the “binding to PDI by ITC” value is “showed no binding to the protein by ITC” and the “ITC KD” value is on record as “KD = N/A irreversible or not active”. In data set [5], this compound registered a Solubility of 100 mM in DMSO. In data set [5] (setting [12]), the “Solubility” value came out at 100 mM (≈ 16.9 mg/mL). Besides, the “toxicity in PC12 cell culture assay” value in [7] is listed as “decreased cellular toxicity”.

In the case of `Cc1nc2s[nH]c(=O)c2c(C)c1C` [LC-51], the EC50 in data set [2] (setting [11]) is 2.2 µM. The “Max Viability (%)” value in [2] (Tables 5-13, PC12 cells) is recorded as 63%. Moreover, the “PC12 cells Max % Viability” value in data set [2] (setting [13]) is given as 63.14%. Further, the “chemical shift changes in PDIa (1H-15N HSQC)” value (from here on “chemical shift changes in PDIa”) in data set [8] was “induced the same chemical shifts in PDI as LOC14”. The “inhibition of enzymatic (reductase) activity of PDI” value in [6] is “did inhibit the enzymatic activity of PDI”. Besides, in data set [3], the “binding to PDI by ITC” value is reported as “could not be detected by ITC” and the “ITC KD” value is “KD = N/A irreversible or not active”. Further, the “toxicity in PC12 cell culture assay” value in data set [7] was “complete loss of toxicity”.

Consider `Cc1nc2sn(CN3CCN(C(=O)C4CC4)CC3)c(=O)c2c(C)c1C` [LC-52], for which the EC50 in data set [2] (setting [11]) stood at 3.57 µM. Moreover, in [2] (Tables 5-13, PC12 cells), the “Max Viability (%)” value amounted to 68%. The “PC12 cells Max % Viability” value in data set [2] (setting [13]) stood at 68.30%. Also, in data set [8], the “chemical shift changes in PDIa” value is recorded as “induced the same chemical shifts in PDI as LOC14”. The “inhibition of enzymatic (reductase) activity of PDI” value in data set [6] was “did inhibit the enzymatic activity of PDI”. In addition, in data set [3], the “binding to PDI by ITC” value was “could not be detected by ITC” and the “ITC KD” value is reported as “KD = N/A irreversible or not active”. In addition, the “toxicity in PC12 cell culture assay” value in data set [7] is recorded as “complete loss of toxicity”.

`Cc1cc(C)c2c(=O)n(CN3CCN(C(=O)C4CC4)CC3)sc2n1` [LC-53]: the EC50 in [2] (setting [11]) is 4.25 µM. In addition, the EC50 in data set [2] (rescue from mHTTQ103 induced cell death, read-out: PC12 cells EC50) came out at 4.25 µM. In addition, the “Max Viability (%)” value in data set [2] (Tables 5-13, PC12 cells) amounted to 67%. Moreover, in [2] (setting [13]), the “PC12 cells Max % Viability” value worked out at 67.25%. Besides, the “chemical shift changes in PDIa” value in [8] is “induced the same chemical shifts in PDI as LOC14”. The “inhibition of enzymatic (reductase) activity of PDI” value in data set [6] was “did inhibit the enzymatic activity of PDI”. Moreover, in [3], the “binding to PDI by ITC” value is “could not be detected by ITC” and the “ITC KD” value is recorded as “KD = N/A irreversible or not active”. Further, in data set [7], the “toxicity in PC12 cell culture assay” value is on record as “complete loss of toxicity”.

With `O=C(C1CC1)N1CCN(Cn2oc3ccccc3c2=O)CC1` [OxyLOC14], the “protection from mHTT in trypan blue viability assay” value in [9] is given as “did not show any protection from mHTT”. Also, in data set [10], the “cellular ROS (CellROX Orange flow cytometry)” value is reported as “did not decrease ROS”.

Turning to `NC(=O)CI` [iodoacetamide], the “reversibility of binding to PDIa C56S after 2.7 mM DTT” value in data set [4] is recorded as “irreversible”.
